The test deals with Bmi-1 protein. Kind of test: Sandwich ELISA Assay (Bmi-1 protein level in HT-1080 cells). Format: cell-based. The method, then: Cell Seeding and Compound Treatment (Day 1):
HT-1080 cells were seeded at 8000 cells/well (50 μL) in 96-well tissue culture plates. After the cells became adherent (3-4 hours), 2× diluted stocks of test compounds in 50 μL DMEM containing 1% DMSO (final DMSO concentration was 0.5%) were added and the plates were incubated at 37° C. under 5% CO2 for 40-48 hours.
ELISA Plate First Antibody Preparation (Day 2):
The First Antibody (Millipore Mouse, monoclonal to mouse Bmi-1, clone F6, catalog #05-637) diluted to 2 μg/mL in PBS was added (100 μL) to each well of a Nunc MaxiSorp 96-well ELISA plate. The plate was covered with a plate seal and allowed to stand overnight.
Cell Lysate Preparation (Day 3):
Fresh Lysis buffer (1×) was prepared on the day of the assay as follows: 1 mM EDTA, 150 mM NaCl, 0.5% Triton-X 100, 10 mM NaF, 20 mM B-Glycerophosphate, 1 mM DTT (in PBS, pH 7.2-7.4) and HALT protease inhibitor cocktail (1×) (Pierce #78410).
Lysis Buffer (1×, 40 μL) was added to each well and the plate was shaken for 5-10 minutes on an orbital shaker to allow cell lysis, then diluent (1% BSA in PBS in 0.5% NP40) (100 μL) was added to each well.
A standard curve was prepared at the following Bmi-1 concentrations: 8000, 4000, 2000, 1000, 500, 250, 125 and 0 pg/mL. The Bmi-1 Recombinant Protein Standard (Novus Biologicals PCGF4 Recombinant Protein (P01), catalog # H00000648-P01) used to prepare the standard curve was stored at −80° C. On first thaw, the Recombinant Protein Standard was diluted to 10 μg/μL in Blocking Buffer (1% BSA in PBS; BSA: Fisher Scientific Catalog #1600-100). Aliquots were taken and refrozen at −80° C. The aliquots may be kept at 4° C. and reused after first thaw, but only within 1-2 weeks. The Recombinant Protein Standard contains a GST-fusion tag that appears at approximately 70 Kda on Western Blot.
The prepared ELISA plate was washed 3× with Wash Buffer (0.05% Tween-20 in PBS). The final wash was removed from the plate and the plate was blotted dry. Blocking Buffer (300 μL) (1% BSA in PBS) was added to each well. The plate was covered with a plate seal and incubated at room temperature for 1 hour. The blocked plate was washed 3× with Wash Buffer, then the final wash was removed and the plate was blotted dry. The previously prepared samples and standards were added (100 μL/well) and the plate was covered with a plate seal and incubated at 4° C. overnight.
The prepared ELISA plate was removed from incubation and allowed to stand at room temperature for 30 minutes, then washed and blotted dry. The Second Antibody (Cell Signaling Rabbit anti-Bmi-1, Cat#2830) diluted to 1:600 in Blocking Buffer was added (100 μL) to each well, except as needed for background control wells. The plate was covered with a plate seal and incubated for 1.5 hrs at room temperature.
The ELISA plate was washed and blotted dry as previously described. The Third Antibody (Cell Signaling HRP conjugated anti-rabbit IgG (CellSignaling, Cat#:7074) diluted to 1:300 in Blocking Buffer was added (100 μL) to each well, except as needed for background control wells. The plate was incubated for 1 hr at room temperature.
The plate was washed and blotted dry, then a previously prepared TMB substrate (TMB substrate kit, Pierce catalog #34021) (prepared by mixing kit reagents 1:1) (100 μL) was added per well. The plate was incubated for 20-30 minutes at room temperature in the dark, then Stop Solution (2 M sulfuric acid in water) (50 μL) was added per well. The plates were read at OD450 (experimental) and OD570 (reference).
By EC50 is commonly meant the concentration at which the effect is half-maximal. Lower therefore signals an effect from little substance. Compound `CCc1nc2ccc(F)cc2n1-c1nc(Nc2ccc(C(F)(F)F)cc2)nc(N)c1F` [Cpd 59, 6-(2-ethyl-6-fluoro-1H-benzimidazol-1-yl)-5-fluoro-N^2-[4-(trifluoromethyl)phenyl]pyrimidine-2,4-diamine] came in with an EC50 of 100 to 3000 nM. As to `Cc1nc2c(F)cc(F)cc2n1-c1cc(N)nc(Nc2ccc(OC(F)F)cc2)n1` [Cpd 60, N^2-[4-(difluoromethoxy)phenyl]-6-(4,6-difluoro-2-methyl-1H-benzimidazol-1-yl)pyrimidine-2,4-diamine], the EC50 fell in the range of 10 to 100 nM. Under `Nc1cc(-n2c(C3CC3)nc3ccccc32)nc(Nc2ccc(C(F)(F)F)cc2)n1` [Cpd 61, 6-(2-cyclopropyl-1H-benzimidazol-1-yl)-N^2-[4-(trifluoromethyl)phenyl]pyrimidine-2,4-diamine] stands 10 to 100 nM; under `Cc1nc2ncccc2n1-c1nc(Nc2ccc(C(F)(F)F)cc2)nc(N)c1F` [Cpd 62, 5-fluoro-6-(2-methyl-1H-imidazo[4,5-b]pyridin-1-yl)-N^2-[4-(trifluoromethyl)phenyl]pyrimidine-2,4-diamine], 100 to 3000 nM. `Nc1cc(-n2c(C3CC3)nc3cc(F)c(F)cc32)nc(Nc2ccc(C(F)(F)F)cc2)n1` [Cpd 64, 6-(2-cyclopropyl-5,6-difluoro-1H-benzimidazol-1-yl)-N^2-[4-(trifluoromethyl)phenyl]pyrimidine-2,4-diamine] displayed an EC50 of 10 to 100 nM. The compound `CCc1nc2cc(F)c(F)cc2n1-c1cc(N)nc(Nc2ccc(C(F)(F)F)cc2)n1` [Cpd 65, 6-(2-ethyl-5,6-difluoro-1H-benzimidazol-1-yl)-N^2-[4-(trifluoromethyl)phenyl]pyrimidine-2,4-diamine] gave an EC50 of 10 to 100 nM. In the case of `Nc1cc(-n2c(C3CC3)nc3cc(F)c(F)cc32)nc(Nc2ccc(OC(F)F)cc2)n1` [Cpd 66, 6-(2-cyclopropyl-5,6-difluoro-1H-benzimidazol-1-yl)-N^2-[4-(difluoromethoxy)phenyl]pyrimidine-2,4-diamine], the EC50 is 1 to 10 nM. `N#Cc1cc(-n2c(C3CC3)nc3cc(F)c(F)cc32)nc(Nc2ccc(C(F)(F)F)cc2)n1` [Cpd 67, 6-(2-cyclopropyl-5,6-difluoro-1H-benzimidazol-1-yl)-2-{[4-(trifluoromethyl)phenyl]amino}pyrimidine-4-carbonitrile] gave an EC50 of 100 to 3000 nM. Regarding `Cc1nc2cc(F)c(F)cc2n1-c1cc(C#N)nc(Nc2ccc(C(F)(F)F)cc2)n1` [Cpd 68, 6-(5,6-difluoro-2-methyl-1H-benzimidazol-1-yl)-2-{[4-(trifluoromethyl)phenyl]amino}pyrimidine-4-carbonitrile], the EC50 lay within 100 to 3000 nM.

As to `Nc1cc(-n2c(C(F)F)nc3ccccc32)nc(Nc2ccc(C(F)(F)F)cc2)n1` [Cpd 69, 6-[2-(difluoromethyl)-1H-benzimidazol-1-yl]-N^2-[4-(trifluoromethyl)phenyl]pyrimidine-2,4-diamine], the EC50 is 10 to 100 nM. As for `Nc1cc(-n2c(C(F)F)nc3ccc(F)cc32)nc(Nc2ccc(OC(F)F)cc2)n1` [Cpd 72, N^2-[4-(difluoromethoxy)phenyl]-6-[2-(difluoromethyl)-6-fluoro-1H-benzimidazol-1-yl]pyrimidine-2,4-diamine], the EC50 lay in the range of 10 to 100 nM. To `NC(=O)c1cccc(Nc2nccc(-c3cnc4ccccn34)n2)c1` [Cpd 75, 3-{[4-(imidazo[1,2-a]pyridin-3-yl)pyrimidin-2-yl]amino}benzamide] belongs 100 to 3000 nM; to `CCc1nc2cc(F)c(F)cc2n1-c1cc(N)nc(Nc2ccc(OC(F)F)cc2)n1` [Cpd 76, N^2-[4-(difluoromethoxy)phenyl]-6-(2-ethyl-5,6-difluoro-1H-benzimidazol-1-yl)pyrimidine-2,4-diamine], 10 to 100 nM. The compound `Cc1nc2cc(F)c(F)cc2n1-c1cc(N)nc(Nc2ccc(OC(F)F)cc2)n1` [Cpd 77, N^2-[4-(difluoromethoxy)phenyl]-6-(5,6-difluoro-2-methyl-1H-benzimidazol-1-yl)pyrimidine-2,4-diamine] yielded an EC50 of 10 to 100 nM.

As for `Cc1nn2ccccc2c1-c1cc(N)nc(Nc2ccc(C(F)(F)F)cc2)n1` [Cpd 82, 6-(2-methylpyrazolo[1,5-a]pyridin-3-yl)-N^2-[4-(trifluoromethyl)phenyl]pyrimidine-2,4-diamine], the EC50 was in the range of 10 to 100 nM. Under `Cc1nc2ccccc2n1-c1cc(N)nc(Nc2ccc(OC(F)F)cc2)n1` [Cpd 83, N^2-[4-(difluoromethoxy)phenyl]-6-(2-methyl-1H-benzimidazol-1-yl)pyrimidine-2,4-diamine] stands 10 to 100 nM; under `CCc1nc2ccccc2n1-c1cc(N)nc(Nc2ccc(OC(F)F)cc2)n1` [Cpd 84, N^2-[4-(difluoromethoxy)phenyl]-6-(2-ethyl-1H-benzimidazol-1-yl)pyrimidine-2,4-diamine], 10 to 100 nM. For the compound `Nc1cc(-n2c(C3CC3)nc3ccccc32)nc(Nc2ccc(OC(F)F)cc2)n1` [Cpd 85, 6-(2-cyclopropyl-1H-benzimidazol-1-yl)-N^2-[4-(difluoromethoxy)phenyl]pyrimidine-2,4-diamine], the EC50 was in the range of 10 to 100 nM. Take `Nc1cc(-n2c(C3CC3)nc3cc(Cl)ccc32)nc(Nc2ccc(C(F)(F)F)cc2)n1` [Cpd 86, 6-(5-chloro-2-cyclopropyl-1H-benzimidazol-1-yl)-N^2-[4-(trifluoromethyl)phenyl]pyrimidine-2,4-diamine]: the EC50 was 100 to 3000 nM. Compound `Nc1cc(-n2c(C3CC3)nc3ccc(Cl)cc32)nc(Nc2ccc(C(F)(F)F)cc2)n1` [Cpd 87, 6-(6-chloro-2-cyclopropyl-1H-benzimidazol-1-yl)-N^2-[4-(trifluoromethyl)phenyl]pyrimidine-2,4-diamine] came in with an EC50 of 10 to 100 nM.

In turn, `CCc1nn2ccccc2c1-c1cc(N)nc(Nc2ccc(C(F)(F)F)cc2)n1` [Cpd 90, 6-(2-ethylpyrazolo[1,5-a]pyridin-3-yl)-N^2-[4-(trifluoromethyl)phenyl]pyrimidine-2,4-diamine] had an EC50 of 10 to 100 nM.

`CCc1nn2ccccc2c1-c1cc(N)nc(Nc2ccc(OC(F)F)cc2)n1` [Cpd 91, N^2-[4-(difluoromethoxy)phenyl]-6-(2-ethylpyrazolo[1,5-a]pyridin-3-yl)pyrimidine-2,4-diamine]: the EC50 fell in the range of 10 to 100 nM.

As for `Nc1cc(-n2c(C3CC3)nc3cc(Cl)ccc32)nc(Nc2ccc(OC(F)F)cc2)n1` [Cpd 92, 6-(5-chloro-2-cyclopropyl-1H-benzimidazol-1-yl)-N^2-[4-(difluoromethoxy)phenyl]pyrimidine-2,4-diamine], the EC50 was 10 to 100 nM. Consider `Nc1cc(-n2c(C3CC3)nc3ccc(Cl)cc32)nc(Nc2ccc(OC(F)F)cc2)n1` [Cpd 93, 6-(6-chloro-2-cyclopropyl-1H-benzimidazol-1-yl)-N^2-[4-(difluoromethoxy)phenyl]pyrimidine-2,4-diamine], for which the EC50 lay in the range of 10 to 100 nM.

With `Cc1nc2ccccc2n1-c1nc(Nc2ccc(OC(F)F)cc2)nc(N)c1F` [Cpd 94, N^2-[4-(difluoromethoxy)phenyl]-5-fluoro-6-(2-methyl-1H-benzimidazol-1-yl)pyrimidine-2,4-diamine], the EC50 is 10 to 100 nM. To `CCc1nc2ccccc2n1-c1cc(N)nc(Nc2ccc(C(F)(F)F)nc2)n1` [Cpd 95, 6-(2-ethyl-1H-benzimidazol-1-yl)-N^2-[6-(trifluoromethyl)pyridin-3-yl]pyrimidine-2,4-diamine] belongs 10 to 100 nM; to `CCc1nc2cc(Cl)ccc2n1-c1cc(N)nc(Nc2ccc(C(F)(F)F)cc2)n1` [Cpd 96, 6-(5-chloro-2-ethyl-1H-benzimidazol-1-yl)-N^2-[4-(trifluoromethyl)phenyl]pyrimidine-2,4-diamine], 100 to 3000 nM; to `CCc1nc2ccc(Cl)cc2n1-c1cc(N)nc(Nc2ccc(C(F)(F)F)cc2)n1` [Cpd 97, 6-(6-chloro-2-ethyl-1H-benzimidazol-1-yl)-N^2-[4-(trifluoromethyl)phenyl]pyrimidine-2,4-diamine], 10 to 100 nM.

The values above are taken from patent US10370371B2, “Substituted pyrimidine Bmi-1 inhibitors” (PTC Therapeutics, Inc., priority 2013, dated 2019).
